Test system: human pancreatic cancer cell cultures (line MiaPaca-2)
Assay: MTT cell viability assay, human pancreatic cancer cells MiaPaca-2
Type: cell-based
Conditions: 1%
Description: The antiproliferative activity of the lipid systems (RLO, RLO+MO and GP), formulations with incorporated SRE (RLO+MO+9% SRE and GP+9% SRE) and (digested and non-digested) non-delivered SRE was evaluated in human pancreatic cancer cell cultures (line MiaPaca-2) by means of the MTT method.
Three independent experiments were performed with different cell strains and on different days. The trend observed in terms of the effect of treatments on cell viability was similar in the 3 experiments.
The parameter used to assess the effect of a compound on cell viability is the mean inhibitory concentration (IC50), which is the product concentration inhibiting cell viability by 50%, such that the lower the IC50 of a compound is, the greater its effect will be.

## O=C1CCCC1 [cyclopentanone]
  viability of treated cells: did not change
